Measurements: patent US20110319392A1, “Thiazole Sulfonamide And Oxazole Sulfonamide Kinase Inhibitors” (priority 2009, published 2011)

Columns and labels:
[1] = tested on: SK-MEL-28 tumor cells; experiment: Cell growth inhibition assay (CellTiter-Glo), SK-MEL-28; format: cell-based, Human; settings: Homo sapiens, SK-MEL-28, 72 h; 3 days incubation
Procedure, shortened: (§1)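 Readout was CellTiter-Glo luminescence (total ATP, surrogate for cell number) after 3-day exposure at 37° C, 5% CO2 to 1:3 serial compound dilutions in 0.2% final DMSO. Seeding was 500 cells/well; IC50 derived by 4-parameter fit relative to vehicle-treated wells.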

[2] = molecular target: T1, ErbB2 (Homo sapiens, UniProt P04626); experiment: ErbB-2 substrate phosphorylation assay (HTRF); format: biochemical
T1 construct: made in house; host or cells: baculovirus expression system
T1 sequence (P04626 23-1255): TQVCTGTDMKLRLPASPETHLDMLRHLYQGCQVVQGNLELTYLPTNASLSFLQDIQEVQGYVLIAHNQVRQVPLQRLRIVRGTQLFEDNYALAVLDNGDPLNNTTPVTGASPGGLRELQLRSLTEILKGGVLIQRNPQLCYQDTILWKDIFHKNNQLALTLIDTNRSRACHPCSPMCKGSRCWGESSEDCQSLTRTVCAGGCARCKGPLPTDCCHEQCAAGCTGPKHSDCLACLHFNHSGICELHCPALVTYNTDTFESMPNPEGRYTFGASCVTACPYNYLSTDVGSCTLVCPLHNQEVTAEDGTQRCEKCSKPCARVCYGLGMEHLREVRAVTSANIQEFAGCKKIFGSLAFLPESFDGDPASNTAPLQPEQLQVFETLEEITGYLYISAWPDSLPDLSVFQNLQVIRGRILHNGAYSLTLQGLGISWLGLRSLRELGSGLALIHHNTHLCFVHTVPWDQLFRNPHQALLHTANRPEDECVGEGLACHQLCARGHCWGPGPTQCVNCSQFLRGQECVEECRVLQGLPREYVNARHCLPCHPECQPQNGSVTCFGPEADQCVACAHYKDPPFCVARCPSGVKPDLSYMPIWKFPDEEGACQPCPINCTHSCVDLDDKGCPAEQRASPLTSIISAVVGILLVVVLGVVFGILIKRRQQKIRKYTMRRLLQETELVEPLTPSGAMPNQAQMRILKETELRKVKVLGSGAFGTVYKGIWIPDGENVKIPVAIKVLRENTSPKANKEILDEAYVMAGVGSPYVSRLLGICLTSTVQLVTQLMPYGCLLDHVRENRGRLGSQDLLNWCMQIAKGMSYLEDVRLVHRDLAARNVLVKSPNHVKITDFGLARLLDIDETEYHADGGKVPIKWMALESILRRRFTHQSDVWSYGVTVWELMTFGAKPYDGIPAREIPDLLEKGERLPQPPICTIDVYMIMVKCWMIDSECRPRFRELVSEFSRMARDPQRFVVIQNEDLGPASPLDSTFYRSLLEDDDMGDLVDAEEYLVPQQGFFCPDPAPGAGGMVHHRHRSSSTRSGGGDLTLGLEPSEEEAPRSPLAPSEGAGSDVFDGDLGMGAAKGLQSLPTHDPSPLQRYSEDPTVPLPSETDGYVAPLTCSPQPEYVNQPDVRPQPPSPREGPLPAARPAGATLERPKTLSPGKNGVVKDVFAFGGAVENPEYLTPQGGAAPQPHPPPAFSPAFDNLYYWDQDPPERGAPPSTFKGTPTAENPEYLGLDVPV
Procedure, shortened: (§2)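 Baculovirus-expressed EGFR (0.8 nM) or ErbB2 (10 nM) in enzyme mix, preincubated 1 h at 20 °C with compound (0.00027–47.6 μM final), then 90 min at 20 °C with substrate mix of 20 μM ATP, 0.8 uM biotinylated Peptide C, MnCl2, MOPS pH 7.5. Phosphotyrosine by HTRF; pIC50 reported.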

[3] = molecular target: T2, EGFR (Homo sapiens, UniProt P00533); experiment: EGFR substrate phosphorylation assay (HTRF); format: biochemical
T2 construct: made in house; host or cells: baculovirus expression system
T2 sequence (P00533 25-1210): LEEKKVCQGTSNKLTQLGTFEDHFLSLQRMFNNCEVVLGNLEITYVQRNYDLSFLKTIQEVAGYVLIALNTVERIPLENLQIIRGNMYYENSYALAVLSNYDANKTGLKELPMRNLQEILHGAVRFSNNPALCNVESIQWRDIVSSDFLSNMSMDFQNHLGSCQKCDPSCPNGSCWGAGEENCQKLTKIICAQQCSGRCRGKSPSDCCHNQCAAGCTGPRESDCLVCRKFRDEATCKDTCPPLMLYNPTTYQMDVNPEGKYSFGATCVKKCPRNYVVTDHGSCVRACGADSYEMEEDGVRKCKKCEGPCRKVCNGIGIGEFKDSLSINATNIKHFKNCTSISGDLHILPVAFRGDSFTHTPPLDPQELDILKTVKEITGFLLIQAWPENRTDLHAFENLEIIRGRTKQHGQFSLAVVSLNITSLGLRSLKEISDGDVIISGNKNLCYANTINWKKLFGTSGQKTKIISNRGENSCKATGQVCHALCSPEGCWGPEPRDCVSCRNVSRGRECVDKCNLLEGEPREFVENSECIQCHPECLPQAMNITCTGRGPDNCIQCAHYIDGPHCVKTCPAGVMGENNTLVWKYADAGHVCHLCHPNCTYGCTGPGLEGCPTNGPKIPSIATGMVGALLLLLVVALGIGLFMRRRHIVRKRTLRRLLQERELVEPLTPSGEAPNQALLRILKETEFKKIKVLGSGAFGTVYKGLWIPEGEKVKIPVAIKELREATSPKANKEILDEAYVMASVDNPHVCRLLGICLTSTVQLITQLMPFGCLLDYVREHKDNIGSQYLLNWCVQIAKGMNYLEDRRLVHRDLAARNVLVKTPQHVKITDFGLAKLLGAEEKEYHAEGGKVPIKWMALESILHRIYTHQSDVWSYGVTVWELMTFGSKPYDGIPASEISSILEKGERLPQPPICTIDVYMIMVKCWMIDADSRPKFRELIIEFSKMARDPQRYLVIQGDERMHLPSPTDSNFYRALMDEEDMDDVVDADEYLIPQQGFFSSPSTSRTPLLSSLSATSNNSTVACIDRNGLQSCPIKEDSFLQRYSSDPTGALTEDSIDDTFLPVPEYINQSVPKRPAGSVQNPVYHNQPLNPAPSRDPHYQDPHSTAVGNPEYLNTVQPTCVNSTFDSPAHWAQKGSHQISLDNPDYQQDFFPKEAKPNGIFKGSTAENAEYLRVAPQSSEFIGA
Procedure, shortened: as §2

[4] = molecular target: B-Raf (Homo sapiens, UniProt P15056); experiment: B-Raf Accelerated MEK ATPase assay (BRAMA), Method A or B; format: biochemical; settings: Method B: final MEK 150 nM, single end point read
Chain of B-Raf (P15056 whole entry): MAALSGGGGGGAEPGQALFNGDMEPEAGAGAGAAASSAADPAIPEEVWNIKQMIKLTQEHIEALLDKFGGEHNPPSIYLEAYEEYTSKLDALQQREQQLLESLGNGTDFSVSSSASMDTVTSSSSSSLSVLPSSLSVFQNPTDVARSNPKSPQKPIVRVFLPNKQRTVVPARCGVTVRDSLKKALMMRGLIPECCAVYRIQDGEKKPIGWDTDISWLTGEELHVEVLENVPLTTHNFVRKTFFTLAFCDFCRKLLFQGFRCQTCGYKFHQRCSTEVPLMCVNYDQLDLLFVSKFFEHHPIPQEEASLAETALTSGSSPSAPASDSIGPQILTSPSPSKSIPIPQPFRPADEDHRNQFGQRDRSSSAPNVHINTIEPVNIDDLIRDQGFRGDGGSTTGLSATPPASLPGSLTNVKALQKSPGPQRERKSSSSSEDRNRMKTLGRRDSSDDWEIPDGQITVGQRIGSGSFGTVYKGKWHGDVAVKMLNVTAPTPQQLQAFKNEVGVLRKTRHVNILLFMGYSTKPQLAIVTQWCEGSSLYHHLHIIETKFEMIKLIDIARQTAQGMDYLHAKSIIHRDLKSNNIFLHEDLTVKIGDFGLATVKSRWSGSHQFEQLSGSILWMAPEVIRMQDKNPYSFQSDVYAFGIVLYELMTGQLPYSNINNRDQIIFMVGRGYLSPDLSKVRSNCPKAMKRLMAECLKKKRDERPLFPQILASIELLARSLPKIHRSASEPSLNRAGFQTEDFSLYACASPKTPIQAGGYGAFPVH
Procedure, shortened: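 ADP production, initiated by catalytic activated Raf with unphosphorylated MEK, is followed by NADH oxidation through a PK/LDH coupled system. Method B differs from the kinetic Method A by a single end-point read and 150 nM final MEK.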

[5] = tested on: Colo205 tumor cells; experiment: Cell growth inhibition assay (CellTiter-Glo), Colo205; format: cell-based, Human; settings: Homo sapiens, COLO 205, 72 h; 3 days incubation
Procedure, shortened: as §1

[6] = tested on: A375P F11s tumor cells; experiment: Cell growth inhibition assay (CellTiter-Glo), A375P F11s; format: cell-based, Human; settings: Homo sapiens
Procedure: (§3) Human breast tumor cells (BT474) were cultured in RPMI (Mediatech […]), containing 10% FBS (JRH Biosciences 12176) and 1% penicillin-streptomycin (Invitrogen 15140). Human head and neck tumor cells (HN5) were cultured in high glucose DMEM (Mediatech 50-013-PB) containing 10% FBS and 1% penicillin-streptomycin. Human colon tumor cells (Colo205) were cultured in RPMI (Mediatech 50-020-PB) containing 10% FBS and 1% penicillin-streptomycin. Human melanoma cancer cells (SK-MEL-28) were cultured in EMEM with nonessential amino acids (Mediatech 50-011-PB) containing 10% FBS, 1% sodium pyruvate (JT Baker 3354-04), and 1% penicillin-streptomycin. Human melanoma cancer cells (A375P F11s) were cultured in RPMI (Mediatech 50-020-PB) containing 10% FBS, 1% sodium pyruvate, and 1% penicillin-streptomycin. Human colon cancer cells (HT-29) were cultured in high glucose DMEM (Mediatech 50-013-PB) containing 10% FBS and 1% penicillin-streptomycin. Human melanoma cancer cells (SK-MEL-3) were cultured in McCoy's 5A (50-025-PB) containing 15% FBS, and 1% penicillin-streptomycin. All cell lines were maintained at 37° C. in a humidified 5% CO2, 95% air incubator. Cells were harvested using trypsin/EDTA (Invitrogen 25200), counted using a haemocytometer, and plated. For 96-well assays (using white full-area NUNC plates cat. #136102), cells were plated in 105 μL at the following densities (cells/well): HNS, 500; Colo 205, 500; SK-MEL-28, 500; A375P F11s, 500; HT-29, 500; SK-MEL-3, 500; and BT474, 3000. For 384-well assays (white full-area NUNC plates, cat. #781080), cells were plated in 48 μL at the following densities (cells/well): HNS, 500; Colo205, 500; SK-MEL-28, 500; A375P F11s, 500; HT-29, 500; SK-MEL-3, 500; and BT474, 2000.
(§4) The next day, compounds were diluted as follow: For 96-well assays, 13.5 μL of compound in DMSO were diluted using nine (9) serial 1:3 dilutions of 4.5 μL in 9 of DMSO. Medium (270 μL/well of RPMI with 10% FBS and 1% penicillin-streptomycin) was added to the plates. Aliquots (7 μL) were added to cells in the final assay giving a final DMSO concentration of 0.2%. For 384-well assays, 15 μL of compound in DMSO were diluted using nine (9) serial 1:3 dilutions of 5 μL in 10 μL of DMSO, followed by a further dilution of 5 μL of compound with 95 μL of medium, of which 2 μL were added to cells in the final assay giving a final DMSO concentration of 0.2%. Cells were incubated at 37° C., 5% CO2 for 3 days.
(§5) Total ATP was measured (as a surrogate estimate of cell number) using CellTiter-Glo® reagent (Promega G7571). Briefly, plates were removed from the incubator and allowed to equilibrate to room temperature for 30 minutes. CellTiter-Glo® (25 μL or 55 μL for 384-well or 96-well assays, respectively) reagent was added to each well and plates were shaken on an orbital plate shaker for 2 minutes. Plates were incubated without shaking for a further 30 minutes and read on an LJL Analyst GT reader in luminometer mode with an integration time of 0.5 seconds per well. Percent inhibition of cell growth was calculated relative to DMSO vehicle-treated control wells. Concentration of compound required to give 50% inhibition of vehicle-treated control cell growth (IC50) was interpolated using a 4-parameter fit for determining IC50 using the following equation: Y=A +((B−A)/(1+((C/X)̂D))) where […].

[7] = tested on: HT-29 tumor cells; experiment: Cell growth inhibition assay (CellTiter-Glo), HT-29; format: cell-based, Human; settings: Homo sapiens
Procedure: as §3, §4, §5

[8] = tested on: SK-MEL-3 tumor cells; experiment: Cell growth inhibition assay (CellTiter-Glo), SK-MEL-3; format: cell-based, Human; settings: Homo sapiens, SK-MEL3
Procedure: as §3, §4, §5

| IC50 [1] [nM] | IC50 [2] [nM] | IC50 [3] [nM] | IC50 [4] [nM] | IC50 [5] [nM] | IC50 [6] [nM] | IC50 [7] [nM] | IC50 [8] [nM] | Compound |
| --- | --- | --- | --- | --- | --- | --- | --- | --- |
| < 100 | 100 to 1000 | 100 to 1000 | < 100 | < 100 |  |  |  | COc1ccc(S(C)(=O)=O)cc1Nc1nccc(-c2sc(C(C)C)nc2-c2cccc(NS(=O)(=O)c3c(F)cccc3F)c2F)n1 [Example 165] |
| 100 to 1000 | > 1000 | > 1000 | < 100 | < 100 | 100 to 1000 | 100 to 1000 | 100 to 1000 | COc1c(NS(=O)(=O)c2c(F)cccc2F)cccc1-c1nc(N2CCOCC2)sc1-c1ccnc(Nc2ccc3c(c2)OCCO3)n1 [Example 170] |
| < 100 | 100 to 1000 | 100 to 1000 | < 100 | < 100 |  |  |  | COc1cc(OCCN2CCOCC2)c(C)cc1Nc1nccc(-c2sc(C(C)C)nc2-c2cccc(NS(=O)(=O)c3c(F)cccc3F)c2F)n1 [Example 171] |
| > 1000 | < 100 | 100 to 1000 | < 100 | > 1000 |  |  |  | COc1ccc(S(C)(=O)=O)cc1Nc1nccc(-c2sc(C(C)C)nc2-c2cccc(NS(=O)(=O)c3c(F)cccc3F)n2)n1 [Example 172] |
| 100 to 1000 | 100 to 1000 | > 1000 | 100 to 1000 | 100 to 1000 |  |  |  | COc1cc(N2CCN(CCS(C)(=O)=O)CC2)c(C)cc1Nc1nccc(-c2sc(C(C)C)nc2-c2cccc(NS(=O)(=O)c3cnn(C)c3)c2)n1 [Example 173] |
| < 100 | > 1000 | > 1000 | < 100 | < 100 |  |  |  | CC(C)c1nc(-c2cccc(NS(=O)(=O)c3cnn(C)c3)c2)c(-c2ccnc(Nc3ccc(N4CCOCC4)nc3)n2)s1 [Example 174] |
| 100 to 1000 | < 100 | 100 to 1000 | 100 to 1000 | < 100 |  |  |  | COc1cc(N2CCN(CCS(C)(=O)=O)CC2)c(C)cc1Nc1nccc(-c2sc(C3CC3)nc2-c2cccc(NS(=O)(=O)c3c(F)cccc3F)c2)n1 [Example 175] |
| < 100 | > 1000 | > 1000 | < 100 | < 100 |  |  |  | CC(C)c1nc(-c2cccc(NS(=O)(=O)c3c(F)cccc3F)c2)c(-c2ccnc(Nc3ccc(N4CCN(CCS(C)(=O)=O)CC4)cc3C(F)(F)F)n2)s1 [Example 176] |
| < 100 | < 100 | < 100 | < 100 | < 100 |  |  |  | COc1cc(N2CCN(CCS(C)(=O)=O)CC2)c(C)cc1Nc1nccc(-c2sc(C3CCOCC3)nc2-c2cccc(NS(=O)(=O)c3c(F)cccc3F)c2F)n1 [Example 177] |
